Experimental data as given in patent US20120157388A1, “EXTERNAL COMPOSITION FOR SKIN” (Shiseido Company, Ltd., priority 2007, published 2012).

Assay: Stability evaluation of lotion (appearance and smell after storage)
Assay type: physicochemical
Details: 50° C., one month
Experimental: For L-lysyl-β-alanine hydrochloride (Example 2), L-lysine (Comparative Example 6), and β-alanine (Comparative Example 7), the following external composition for skin was prepared, and the stability thereof was evaluated.
50 g each of Example 2, Comparative Example 6 and
Comparative Example 7 was placed in a 50 ml screw tube and capped. After storing them in a 50° C. incubator for one month, changes in appearance and smell were judged according to the following criteria.

## NCCCC[C@H](N)C(=O)NCCC(=O)O [L-lysyl-β-alanine]
  stability in appearance (in words): excellently stable
  stability in smell (in words): excellently stable
